Results published in patent US20160227783A1, “AGROCHEMICAL FORMULATION AID FOR MICRONUTRIENT UPTAKE IN PLANTS, PLANT HEALTH BENEFITS AND HERBICIDE PERFORMANCE” (Adjuvants Plus USA, INC., priority 2015, published 2016).
Marks after values point to notes of the source that are not given here.

Tests used:
Velvetleaf = assay: Influence of water conditioners on the control of velvetleaf 21 DAT in the greenhouse; settings: velvetleaf 21 DAT greenhouse
[1] = system: glyphosate resistant canola Nexera 1012; assay: Canola leaf tissue mineral composition after glyphosate with or without Composition 2; type: in vivo; settings: for % K / % N / % P / % S / Fe ppm / Mn ppm / Zn ppm: Control: glyphosate 0.45 kg/ha alone
Method: (§1) A trial was conducted to evaluate the effect of early and or late application of glyphosate with Composition 2 on yield of glyphosate resistant canola. The RR canola was Nexera 1012. The trial was conducted on a silt loam soil with 40-47% sand, 30-50% silt and 10-23% clay, 1.4-2.9% organic matter, and pH of 6.4-8.2. The plot was planted to field pea and then hard red spring wheat the previous two years. Treatments were arranged in a randomized complete block design with four (4) replications each while the control (no-Composition 2) was replicated only twice. Plots were seeded with Nexera 1012 at seeding depth of about 1.2 to 2.5 cm, 10° C. soil temperature and plant population of approximately 110-115 seeds m2. Plants were fertilized with 87-31-9-22 N—P—K—S pounds per acre via spreading urea and potash and putting phosphorus (Alpine and 11-52-0) and sulfur through the drill. In-crop application of glyphosate at a rate of 0.45 kg ha-1 (180 g/ac) with Composition 2 at 1 L/ac was applied at 3-4 leaf stage (Early application), 6 leaf stage (Normal application), after 10 leaf stage (late) and at both 3-4 leaf and after 10 leaf stages (Early/late application). The control treatments were sprayed with glyphosate alone. Each treatment was replicated four (4) times except the control treatment which had only two (2) replications.
(§2) Plant leaf tissues were collected at one and two weeks after spraying within each treatment to determine the mineral compositions. At physiological maturity with 70% of the seeds on the main raceme turned black, plants were swathed and allowed to cure for three weeks before being combined. Prior to swathing, fifty randomly selected plants were used for seed yield and yield components analysis. Data on number of fruits/plant, percent seed oil and seed protein were collected and analysed. An area of […] of swath for each plot was combined and used for yield (bu/ac) determination. Seed yield (bu/ac) from combine was adjusted to 8% seed moisture content. Variables response to treatments were compared by analysis of variance (ANOVA) by using SPSS statistical software and mean values were subjected to ANOVA and significant means at F<0.05 were separated by the Duncan's multiple range test.

[2] = system: glyphosate resistant canola Nexera 1012; assay: Canola field trial: flowering, yield components, oil, protein and seed yield; type: in vivo
Method: as §1, §2

[3] = canola leaf tissue one week after application, Control: glyphosate alone
[4] = canola leaf tissue one week after spraying
[5] = canola leaf tissue two weeks after spraying
[6] = canola, Control: glyphosate 0.45 kg/ha alone

## N.N.O=S(=O)(O)O [AMS, Diammonium sulfate]
Velvetleaf; 2,4-D Acid (Rugged) 0.1 kg a.e/ha +2% AMS
  2,4-D Acid (% control): 73 ab %
Velvetleaf; 2,4-D DMA 0.1 kg a.e./ha +2% AMS
  2,4-D DMA (% control): 58 def %

## O=C(O)CNCP(=O)(O)O [glyphosate]
[1]; [3]
  Fe reduction: 22.7%
  Mn concentration drop from the initial concentration: 13.4%
  Zn concentration drop from the initial concentration: 14.5%
[1]; [4]
  % K: 4.1^a %
  % N: 3.7^a %
  % P: 0.3^a %
  % S: 1.0^a %
  Fe ppm: 85.1^a ppm
  Mn ppm: 76.4^a ppm
  Zn ppm: 20.7^a ppm
[1]; [5]
  % K: 4.3^a %
  % N: 4.6^a %
  % P: 0.5^a %
  % S: 1.3^a %
  Fe ppm: 105^a ppm
  Mn ppm: 83.2^a ppm
  Zn ppm: 22.6^a ppm
[2]; canola seed, Control: glyphosate 0.45 kg/ha alone
  oil content: 37.7%
[2]; canola seed, Control: glyphosate alone
  percent protein: lowest value
[2]; [6]
  Number of fruits per plant: 78.5
  Seed yield: 40.9 bu/ac
  thousand seed weight: 3.1 g
[2]; control (no-Composition 2) compared to Early, Normal and Early/Late treatments
  Percent green counts: higher
[2]; no-Composition 2 (glyphosate alone) plots compared to Composition 2 treated plots
  Flowering: delayed

## CNC.O=C(O)COc1ccc(Cl)cc1Cl [2,4-D DMA, 2,4-D Dimethylamine]
Velvetleaf; 2,4-D DMA 0.1 kg a.e./ha, herbicide alone
  2,4-D DMA (% control): 29 g %

## COc1c(Cl)ccc(Cl)c1C(=O)O.NCCOCCO [Dicamba DGA, dicamba diglycolamine]
Velvetleaf; Dicamba DGA (Clarity) 0.034 kg a.e/ha, herbicide alone
  Dicamba DGA (% control): 36 g %

## O=C(O)COc1ccc(Cl)cc1Cl [2,4-D Acid, 2,4-D]
Velvetleaf; 2,4-D Acid (Rugged) 0.1 kg a.e/ha, herbicide alone
  2,4-D Acid (% control): 31 g %
